# Numbers after ± are expanded uncertainties.
# Key:
# [1] = mn = molality of the nth substance listed, in mol/kg; settings: 101.3 kPa, Liquid, m2 = 0; for viscosity: Capillary tube (Ostwald / Ubbelohde) method; for mass density: Pycnometric method
# [2] = 101.3 kPa, Liquid; for viscosity: Capillary tube (Ostwald / Ubbelohde) method; for mass density: Pycnometric method
SMILES,viscosity ([1]; 275.15 K) [mPa·s],mass density ([1]; 275.15 K) [kg/m3],viscosity ([1]; 277.15 K) [mPa·s],mass density ([1]; 277.15 K) [kg/m3],viscosity ([1]; 279.15 K) [mPa·s],mass density ([1]; 279.15 K) [kg/m3],viscosity ([2]; 275.15 K) [mPa·s],mass density ([2]; 275.15 K) [kg/m3],viscosity ([2]; 277.15 K) [mPa·s],mass density ([2]; 277.15 K) [kg/m3],viscosity ([2]; 279.15 K) [mPa·s],mass density ([2]; 279.15 K) [kg/m3]
O [water] + O=C1O[C@H]([C@@H](O)CO)C([O-])=C1O.[Na+],1.674 ± 0.035,999.94 ± 0.29,1.567 ± 0.032,999.97 ± 0.28,1.472 ± 0.03,999.94 ± 0.28,,,,,,
O [water],,,,,,,1.674 ± 0.035,999.94 ± 0.28,1.567 ± 0.032,999.97 ± 0.28,1.472 ± 0.03,999.94 ± 0.28
O [water] + Cc1ncc(C[n+]2csc(CCO)c2C)c(N)n1.Cl.[Cl-],1.674 ± 0.035,999.94 ± 0.28,1.567 ± 0.032,999.97 ± 0.28,1.472 ± 0.03,999.94 ± 0.28,,,,,,
O [water] + Cc1ncc(CO)c(CO)c1O.Cl,1.674 ± 0.035,999.94 ± 0.28,1.567 ± 0.032,999.97 ± 0.28,1.472 ± 0.03,999.94 ± 0.27,,,,,,

# Source: the NIST ThermoML archive (doi:10.1016/j.jct.2016.12.033)
